Results from patent publication US20160030416A1, “METHODS OF TREATING B2-BRADYKININ RECEPTOR MEDIATED ANGIOEDEMA” (SHIRE HUMAN GENETIC THERAPIES, INC., priority 2013, published 2016).
Values after ≈ are worked out from the molar mass of the structure shown.

Key:
BZD (peripheral) = target: T1, BZD (peripheral) (Rattus norvegicus, UniProt P16257); experiment: Off-target receptor binding: BZD (peripheral)
T1 construct: from tissue
Method: To determine the affinity to the B2-bradykinin receptor, CFMQ was compared to a diverse set of receptors and reference agents in an in vitro assay using cells from rat heart, urinary bladder, cerebral cortex, as well as human recombinant cells (CHO and HEK 293) and other cell lines. Each assay included a ligand at a specific concentration (concentration ranging from 0.007-10 nM), in addition to a non-specific ligand (concentration ranging from […]) for incubation periods ranging from 15 minutes to 6 hours at 4°-37° C. The specific binding to the receptors was defined as the difference between the total binding and the nonspecific binding, determined in the presence of an excess of unlabeled CFMQ. The concentration causing a half-maximal inhibition of control specific binding (IC50 values) and inhibition constants (Ki) were determined, and each reference compound was within the accepted limits of the historic average (±0.5 log units).

[1] = Physicochemical properties of CFMQ
Method: The physicochemical properties of 1-((4-Chloro-3-(((4-(4-fluoro-1H-pyrazol-1-yl)-2-methylquinolin-8-yl)oxy)methyl)-6-methylpyridin-2-yl)methyl)-2-oxo-1,2-dihydropyridine-3-carbonitrile (CFMQ) were determined using standard methods. CFMQ was a free base with a molecular weight of 514.9 Da and was a nonhygroscopic, crystalline powder with a melting point of about 214° C.

[2] = In vitro microsomal stability, monkey; format: in vitro ADME; details: Monkey (Cynomolgus), Male
Method: In vitro metabolic stability studies were performed to determine hepatic stability in vivo. CFMQ was incubated in liver microsomal preparations from mouse, rat, dog, mini-pig, and humans, as well as an additional study with monkey and human. CFMQ was incubated with human and animal liver microsomes at 0.3 mg/mL at 37° C. for 30 or 60 minutes. Additional reference compounds were incubated as controls. Following incubation, samples were analyzed by HPLC-MS/MS.

[3] = Pharmacokinetics, single oral gavage, 2 formulations, Wistar and Sprague-Dawley rats; format: in vivo; details: for AUC(0-inf) / AUC(0-t) / Cmax / Tmax / half-life: rat, plasma, po
Method: Pharmacokinetics and gender differences were evaluated with 2 different formulations of CFMQ (HGT3711) in 2 different types of rat models. These attributes were investigated in a single oral gavage study. Male and female Wistar rats (n=3 per dose group) received CFMQ (HGT3711) at 15, […], and or 150 mg/kg. […] The two vehicle formulations evaluated were formulation 1: 10% N-methyl pyrrolidone (NMP): 10% Ethanol: 30% polyethylene glycol (PEG400): 50% […] (lauroyl polyoxylglycerides); and formulation 2: 10% NMP: 0% PEG400: 20% CREMOPHOR EL (Macrogolglycerol ricinoleate): 25% […] 44/14 (lauroyl polyoxylglycerides): 25% CAPROYOL 90 (Propylene Glycol Caprylate).
Blood samples were taken via cardiac puncture prior to administration and at 0.25 (15 min), 0.50 (30 min), 1, 2, 4, 8 and 24 hours post dose. Plasma concentrations of CFMQ (HGT3711) were determined by LC-MS/MS and nominal dosing concentrations were used in all calculations.

[4] = female, Sprague-Dawley, 75 mg/kg, Formulation 1, S-D (Female)
[5] = female, Sprague-Dawley, 75 mg/kg, Formulation 2, S-D (Female)
[6] = female, Wistar, 15 mg/kg, Formulation 1, Wistar (Female)
[7] = female, Wistar, 15 mg/kg, Formulation 2, Wistar (Female)
[8] = female, Wistar, 75 mg/kg, Formulation 1, Wistar (Female)
[9] = female, Wistar, 75 mg/kg, Formulation 2, Wistar (Female)
[10] = female, Wistar, 150 mg/kg, Formulation 1, Wistar (Female)
[11] = female, Wistar, 150 mg/kg, Formulation 2, Wistar (Female)
[12] = male, Sprague-Dawley, 75 mg/kg, Formulation 1, S-D (Male)
[13] = male, Sprague-Dawley, 75 mg/kg, Formulation 2, S-D (Male)
[14] = male, Wistar, 15 mg/kg, Formulation 1, Wistar (Male)
[15] = male, Wistar, 15 mg/kg, Formulation 2, Wistar (Male)
[16] = male, Wistar, 75 mg/kg, Formulation 1, Wistar (Male)
[17] = male, Wistar, 75 mg/kg, Formulation 2, Wistar (Male)
[18] = male, Wistar, 150 mg/kg, Formulation 1, Wistar (Male)
[19] = male, Wistar, 150 mg/kg, Formulation 2, Wistar (Male)

Cc1cc(Cl)c(COc2cccc3c(-n4cc(F)cn4)cc(C)nc23)c(Cn2cccc(C#N)c2=O)n1 [CFMQ, 1-((4-Chloro-3-(((4-(4-fluoro-1H-pyrazol-1-yl)-2-methylquinolin-8-yl)oxy)methyl)-6-methylpyridin-2-yl)methyl)-2-oxo-1,2-dihydropyridine-3-carbonitrile]
IC50 (BZD (peripheral)): 1400 nM | Ki (BZD (peripheral)): 1200 nM | nH (BZD (peripheral)): 1.7 | inhibition at 10 µM (BZD (peripheral); CFMQ at 10 μM): 93% | pKa1 [1]: 3.95 | pKa2 [1]: 1.70 | solubility in acidic environments ([1]; acidic environments): greatly enhanced | solubility in aqueous medium ([1]; aqueous medium): slight solubility | logD ([1]; pH = 7.4): 3.47 | solubility ([1]; phosphate buffered saline (PBS), aqueous buffer): 33 µM (≈ 17 µg/mL) | % Remaining [30 minutes] ([2]; 30 minutes): 32% | % Remaining [60 minutes] ([2]; 60 minutes): 7% | oral exposure in female rats compared to male rats ([3]; average dose normalized AUC values, both S-D and Wistar): 20-40 times | AUC(0-inf) [3, 4]: 14300 ng·h/mL | AUC(0-t) [3, 4]: 11900 ng·h/mL | Cmax [3, 4]: 2280 ng/mL | Tmax [3, 4]: 0.5 h | half-life [3, 4]: 2.01 h | AUC(0-inf) [3, 5]: 20800 ng·h/mL | AUC(0-t) [3, 5]: 20600 ng·h/mL | Cmax [3, 5]: 2180 ng/mL | Tmax [3, 5]: 0.83 h | half-life [3, 5]: 3.58 h | AUC(0-inf) [3, 6]: 6650 ng·h/mL | AUC(0-t) [3, 6]: 4660 ng·h/mL | Cmax [3, 6]: 1140 ng/mL | Tmax [3, 6]: 0.83 h | half-life [3, 6]: 3.1 h | AUC(0-inf) [3, 7]: 5810 ng·h/mL | AUC(0-t) [3, 7]: 5210 ng·h/mL | Cmax [3, 7]: 592 ng/mL | Tmax [3, 7]: 3.33 h | half-life [3, 7]: 6.08 h | AUC(0-inf) [3, 8]: 11100 ng·h/mL | AUC(0-t) [3, 8]: 11100 ng·h/mL | Cmax [3, 8]: 2550 ng/mL | Tmax [3, 8]: 0.58 h | half-life [3, 8]: 3.13 h | AUC(0-inf) [3, 9]: 11300 ng·h/mL | AUC(0-t) [3, 9]: 10700 ng·h/mL | Cmax [3, 9]: 2200 ng/mL | Tmax [3, 9]: 0.75 h | half-life [3, 9]: 3.12 h | AUC(0-inf) [3, 10]: 9060 ng·h/mL | AUC(0-t) [3, 10]: 8710 ng·h/mL | Cmax [3, 10]: 1850 ng/mL | Tmax [3, 10]: 0.33 h | half-life [3, 10]: 5.42 h | AUC(0-inf) [3, 11]: 6440 ng·h/mL | AUC(0-t) [3, 11]: 6430 ng·h/mL | Cmax [3, 11]: 1580 ng/mL | Tmax [3, 11]: 0.33 h | half-life [3, 11]: 2.64 h | AUC(0-inf) [3, 12]: 435 ng·h/mL | AUC(0-t) [3, 12]: 410 ng·h/mL | Cmax [3, 12]: 187 ng/mL | Tmax [3, 12]: 0.5 h | half-life [3, 12]: 1.96 h | AUC(0-inf) [3, 13]: 745 ng·h/mL | AUC(0-t) [3, 13]: 673 ng·h/mL | Cmax [3, 13]: 191 ng/mL | Tmax [3, 13]: 0.67 h | half-life [3, 13]: 3.43 h | AUC(0-inf) [3, 14]: 229 ng·h/mL | AUC(0-t) [3, 14]: 218 ng·h/mL | Cmax [3, 14]: 77.4 ng/mL | Tmax [3, 14]: 0.5 h | half-life [3, 14]: 1.67 h | AUC(0-inf) [3, 15]: 155 ng·h/mL | AUC(0-t) [3, 15]: 175 ng·h/mL | Cmax [3, 15]: 34.7 ng/mL | Tmax [3, 15]: 0.83 h | half-life [3, 15]: 1.74 h | AUC(0-inf) [3, 16]: 282 ng·h/mL | AUC(0-t) [3, 16]: 243 ng·h/mL | Cmax [3, 16]: 155 ng/mL | Tmax [3, 16]: 0.25 h | half-life [3, 16]: 4.28 h | AUC(0-inf) [3, 17]: 261 ng·h/mL | AUC(0-t) [3, 17]: 219 ng·h/mL | Cmax [3, 17]: 94.9 ng/mL | Tmax [3, 17]: 0.5 h | half-life [3, 17]: 3.35 h | AUC(0-inf) [3, 18]: 397 ng·h/mL | AUC(0-t) [3, 18]: 309 ng·h/mL | Cmax [3, 18]: 277 ng/mL | Tmax [3, 18]: 0.25 h | half-life [3, 18]: 1.63 h | AUC(0-inf) [3, 19]: 260 ng·h/mL | AUC(0-t) [3, 19]: 199 ng·h/mL | Cmax [3, 19]: 119 ng/mL | Tmax [3, 19]: 0.25 h | half-life [3, 19]: 2.43 h | adverse reactions ([3]; single oral gavage 15-150 mg/kg, rats): No adverse reactions were observed | increase in exposure, females compared to males ([3]; within both formulations): > 5 fold
